Measured values reported in US12668584B2, “Heterocyclic compounds as kinase inhibitors for therapeutic uses” (National Health Research Institutes, priority 2019, dated 2026).
pIC50: −log10 of the molar value.

Legend:
[1] = molecular target: T1, CSF1R kinase (recombinant N-terminal GST-CSF1R, residues L534-C972) (Homo sapiens, UniProt P07333); assay: CSF1R Kinase-Glo assay; format: biochemical; details: 40 μM ATP, 30° C. 180 min, read-out: Enzymatic Assay CSF1R enzyme IC50
T1 construct: Recombinant N-terminal GST-CSF1R (CSF1R residues L534-C972) containing the CSFIR kinase domain; made in house; host or cells: Sf9 insect cells
T1 sequence (P07333 534-972): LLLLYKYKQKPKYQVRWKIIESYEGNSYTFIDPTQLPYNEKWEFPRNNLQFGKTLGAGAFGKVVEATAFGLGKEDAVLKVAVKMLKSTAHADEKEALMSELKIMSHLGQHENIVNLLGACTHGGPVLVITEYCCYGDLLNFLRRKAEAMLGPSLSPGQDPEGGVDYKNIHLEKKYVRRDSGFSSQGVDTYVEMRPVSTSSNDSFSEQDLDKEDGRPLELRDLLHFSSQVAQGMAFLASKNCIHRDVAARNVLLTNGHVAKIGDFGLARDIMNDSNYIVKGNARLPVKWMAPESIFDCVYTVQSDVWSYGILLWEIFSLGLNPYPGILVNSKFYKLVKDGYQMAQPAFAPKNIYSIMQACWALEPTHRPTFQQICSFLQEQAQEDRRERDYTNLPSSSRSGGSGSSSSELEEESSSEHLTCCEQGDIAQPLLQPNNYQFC
Summary of the method: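 Sf9-expressed, purified GST-CSF1R kinase domain (600 ng) was incubated with compound for 180 min at 30° C. with 40 μM ATP and 20 μM poly(Glu,Tyr) 4:1 at pH 7.4 (Mn2+/Mg2+). Remaining ATP was read by Kinase-Glo Plus luminescence. IC50 was fitted from percentage inhibition versus no-compound controls across a concentration range.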

[2] = molecular target: T2, fms-like tyrosine kinase 3 (FLT3) (Homo sapiens, UniProt P36888); assay: HotSpot kinase profiling, FLT3; format: biochemical; details: HotSpot assay, 10 μM ATP; IC50 of kinase divided by that of CSF1R
T2 sequence (P36888 27-993): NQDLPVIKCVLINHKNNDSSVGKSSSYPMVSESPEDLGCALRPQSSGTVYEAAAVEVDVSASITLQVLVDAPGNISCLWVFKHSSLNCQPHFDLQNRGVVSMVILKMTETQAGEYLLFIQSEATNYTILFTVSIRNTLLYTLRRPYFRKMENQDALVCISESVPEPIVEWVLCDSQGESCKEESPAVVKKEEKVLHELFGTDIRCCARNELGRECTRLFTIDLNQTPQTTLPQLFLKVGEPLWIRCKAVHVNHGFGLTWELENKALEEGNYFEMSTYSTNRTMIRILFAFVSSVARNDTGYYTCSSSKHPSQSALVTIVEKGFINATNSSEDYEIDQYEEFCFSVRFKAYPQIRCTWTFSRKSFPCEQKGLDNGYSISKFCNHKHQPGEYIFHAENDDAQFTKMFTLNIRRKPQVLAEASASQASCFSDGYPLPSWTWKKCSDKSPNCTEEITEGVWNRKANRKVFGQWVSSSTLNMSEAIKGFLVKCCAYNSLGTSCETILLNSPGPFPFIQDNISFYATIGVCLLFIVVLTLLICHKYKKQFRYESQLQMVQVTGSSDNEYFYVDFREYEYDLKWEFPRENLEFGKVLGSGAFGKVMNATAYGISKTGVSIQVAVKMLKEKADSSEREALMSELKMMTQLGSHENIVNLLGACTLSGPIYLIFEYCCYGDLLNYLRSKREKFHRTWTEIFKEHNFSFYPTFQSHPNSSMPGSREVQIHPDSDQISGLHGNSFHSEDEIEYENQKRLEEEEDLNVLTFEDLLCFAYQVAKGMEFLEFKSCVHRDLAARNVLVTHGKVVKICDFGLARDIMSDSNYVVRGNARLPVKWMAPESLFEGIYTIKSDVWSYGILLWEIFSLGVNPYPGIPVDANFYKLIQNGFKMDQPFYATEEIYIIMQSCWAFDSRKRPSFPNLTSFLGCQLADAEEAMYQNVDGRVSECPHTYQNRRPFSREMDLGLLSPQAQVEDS
Procedure: A study was conducted to determine kinase selectivity of compounds 27 and 67. More specifically, each compound was tested for inhibitory activity of CSF1R kinase, as compared to that of seven other kinases, i.e., Aurora A, Aurora B, tyrosine-protein kinase Kit (c-Kit), fms-like tyrosine kinase 3 (FLT3), platelet-derived growth factor receptor (PDGFR) A, PDGFR B, and discoidin domain receptor tyrosine kinase 1 (DDR1).
In vitro profiling of the kinase panel was performed at Reaction Biology Corporation (www.reactionbiology.com, Malvern, PA) using the “HotSpot” assay platform. Briefly, specific kinase/substrate pairs along with required cofactors were prepared in a reaction buffer containing 20 mM Hepes pH 7.5, 10 mM MgCl2, 1 mM EGTA, 0.02% Brij35, 0.02 mg/ml BSA, 0.1 mM NA3VO4, 2 mM DTT, and 1% DMSO. Compound 27 or 67 was added. 20 minutes later, a mixture of ATP (Sigma, St. Louis MO) and ^33P ATP (Perkin Elmer, Waltham MA) was added to the resulting reaction solution to give a final concentration of 10 μM. The reaction was carried out at room temperature for 120 min., followed by spotting the reaction solution onto P81 ion exchange filter paper (Whatman Inc., Piscataway, NJ). Unbound phosphate was removed by extensive washing filters in 0.75% phosphoric acid. […] Selectivity, expressed as an IC50 ratio, was determined by dividing the IC50 value of a kinase, e.g., Aurora A, by that of CSF1R.

Compound | pIC50 [1] | IC50 ratio FLT3 / CSF1R [2]
CN(C)c1ccc2c(Oc3ccc(NC(=O)NCc4ccc(C(F)(F)F)nc4)cc3)ncnc2c1 [Compound 27, 1-(4-((7-(dimethylamino)quinazolin-4-yl)oxy)phenyl)-3-((6-(trifluoromethyl)pyridin-3-yl)methyl)urea] | > 7.70 | +++ (+++: 1000 > IC50 ratio > 100)
CN(C)c1ccc2c(Oc3ccc4c(ccn4C(=O)NCc4ccc(C(F)(F)F)nc4)c3)ncnc2c1 [Compound 67, 5-((7-(dimethylamino)quinazolin-4-yl)oxy)-N-((6-(trifluoromethyl)pyridin-3-yl)methyl)-1H-indole-1-carboxamide] | 7.00 to 7.70 | +++ (+++: 1000 > IC50 ratio > 100)
